Results reported in patent publication US9023836B2, “Use of substituted heterocyclic compounds to control sea lice on fish” (Novartis Tiergesundheit AG, priority 2010, dated 2015).
In brackets after ≈: the same amount, converted by molar mass.

What was measured:
[1] = tested on: Lepeophtheirus salmonis copepodids; assay: Activity in vitro against Lepeophtheirus salmonis at copepodid stage; settings: 1 hour contact in sea water, then 48 h in untreated sea water, no movement over 80 seconds, read-out: efficacy (EC80)
Procedure: Activity in Vitro Against Lepeophtheirus Salmonis at Copepodid Stage Sea lice copepodids were used to seed a 96-well plate containing the test substances to be evaluated for antiparasitic activity. Each compound was tested by serial dilution in order to determine its minimal effective dose (MED). Copepodids were left in contact with the test compound diluted in sea water for 1 hour. They were then incubated in untreated sea water for 48 h. Efficacy against sea lice was then confirmed if no copepodid moved over a period of 80 seconds.

[2] = tested on: Lepeophtheirus salmonis on Atlantic salmon; assay: In vivo activity against Lepeophtheirus salmonis on Atlantic salmon using injectable application
Procedure: In Vivo Activity of Compound 8 Against Lepeophtheirus Salmonis on Atlantic Salmon using Injectable Application
Twenty Atlantic salmon (mean weights at about 100 g) were anaesthetized with 2-phenoxy ethanol, individually weighed and injected with 0.2 ml of compound 8 formulated in PEG300 at 2.5%, corresponding to a 50 mg/kg dose. Each treatment was administered by single IP injection and fish were then transferred to a flow through tank, the temperature of which was maintained between 6 and 14° C. Louse infection was by exposure of experimental fish to louse copepodids freshly hatched from Lepeophtheirus salmonis egg strings. The number of copepodids used was selected to provide a settlement rate of at least 10 lice per fish. Sea louse numbers were assessed when they had developed to chalimus stage III/IV or later on if needed.
(§1) Ten fish per group were anaesthetized with 2 phenoxy-ethanol and examined for louse settlement under a dissecting microscope. Differences in sea louse counts between each test group and the relevant control group (non treated) infested at the same time as the test group were assessed using Mann-Whitney Tests. Efficacy was calculated using the formula: % Efficacy=100−(100×mean of treatment group/mean of control).

[3] = tested on: Lepeophtheirus salmonis on Atlantic salmon; assay: In vivo activity against Lepeophtheirus salmonis on Atlantic salmon using bath treatment application; settings: bath 2 ppm in salt water, 60 minutes
Procedure: In Vivo Activity of Compound 8 Against Lepeophtheirus Salmonis on Atlantic Salmon using Bath Treatment Application Bath containing compound 8 at 2 ppm in salt water was prepared by dilution of a solution of compound 8 in DMSO. Fish (Atlantic salmons) had been previously infected with 2 cohorts of lice to ensure the presence of chalimus and motile lice at the time of treatment. This test was performed on thirty fish per group and was compared to 30 control fish that were bathed in sea water containing DMSO only (at an inclusion rate equal to that used in the test group using the most DMSO as solvent), for 60 minutes. The fish were then transferred to holding tanks and sampled for lice numbers at 3 and 10 days post treatment. Ten fish per group were anaesthetized with 2 phenoxy-ethanol and examined for louse settlement under a dissecting microscope. Differences in sea louse counts between each test group and the relevant control group (non treated) infested at the same time as the test group were assessed using Mann-Whitney Tests. Efficacy was calculated using the formula: % Efficacy=100−(100×mean of treatment group/mean of control).

[4] = tested on: Lepeophtheirus salmonis on Atlantic salmon; assay: In vivo activity against Lepeophtheirus salmonis on Atlantic salmon using in-feed application; settings: medicated pellets 9.8 mg/kg/day, 7 consecutive days
Procedure: In Vivo Activity of Compound 8 Against Lepeophtheirus Salmonis on Atlantic Salmon using In-Feed Application
Compound 8 was administered orally via medicated fish pellets at an average dose of 9.8 mg/kg/day during 7 consecutive days to 50 Atlantic salmon infected with lice (Lepeophtheirus salmonis). The medicated pellets were prepared by dry top coating of the compound 8, formulated as feed additive as described above, and over-oiling to seal (1% fish oil). Fish had been previously infected by exposure to louse. The number of copepodids used was selected to provide an settlement rate of at least 10 lice per fish. Treatment was done when lice had developed to pre-adult II and adult stages. Sea louse numbers were assessed 34 days post treatment. A second challenge using louse copepodids took place at 41 days post treatment. Sea louse numbers were assessed when they had developed to adults.
as §1, with “All” for “Ten”, “fish” for “fish per group”

[5] = tested on: Lepeophtheirus salmonis adult lice; assay: In vitro activity against Lepeophtheirus salmonis at adult stage; settings: at 1 ppm; 60 minutes exposure, survival at 24 hours post exposure, 12° C.
Procedure: In Vitro Activity of Compound 8 Against Lepeophtheirus Salmonis at Adult Stage
Ten mixed sex adult lice (non gravid, Lepeophtheirus salmonis) were removed from fish and exposed to a test compound at several dilution in filtered sea water and placed in an incubator at 12° C. in dark conditions. After 60 minutes exposure, lice were rinsed in clean sea water and transferred to petri dishes containing 100 mL of sea water. They were then returned to the incubator. Lice were examined for survival at 24 hours post exposure (moribund lice considered as dead)

[6] = 50 mg/kg IP, 14 days post treatment, Chalimus III
[7] = 50 mg/kg IP, 41 days post treatment, Chalimus III
[8] = 50 mg/kg IP, 83 days post treatment, Chal III/IV
[9] = 50 mg/kg IP, 127 days post treatment, Chal III/IV
[10] = 50 mg/kg IP, 169 days post treatment, Chal III/IV
[11] = 50 mg/kg IP, 217 days post treatment, Adults
[12] = 50 mg/kg IP, 217 days post treatment, Chal III/IV
[13] = 50 mg/kg IP, 217 days post treatment, PAI & PAII
[14] = 50 mg/kg IP, 252 days post treatment, Chal IV/PAI

## CCCC(=O)NCc1ccc(C2=NOC(c3cc(Cl)cc(Cl)c3)(C(F)(F)F)C2)cc1C (centres unmarked) [Example 25]
[1]
  EC80: 0.05 µg/mL (≈ 0.106 µM)

## CON/C=N\C(=O)c1ccc(C2=NOC(c3cc(Cl)cc(Cl)c3)(C(F)(F)F)C2)c2ccccc12 (centres unmarked) [Example 13]
[1]
  EC80: 0.05 µg/mL (≈ 0.098 µM)

## Cc1cc(C2=NOC(c3cc(Cl)cc(Cl)c3)(C(F)(F)F)C2)ccc1CNC(=O)CC1(C)OCCO1 (centres unmarked) [Example 26]
[1]
  EC80: 0.05 µg/mL (≈ 0.0941 µM)

## CON/C=N/C(=O)c1ccc(C2=NOC(c3cc(Cl)cc(Cl)c3)(C(F)(F)F)C2)cc1C (centres unmarked) [Example 16]
[1]
  EC80: 0.05 µg/mL (≈ 0.105 µM)

## Cc1cc(C2=NOC(c3cc(Cl)cc(Cl)c3)(C(F)(F)F)C2)ccc1-n1cncn1 (centres unmarked) [Example 1]
[1]
  EC80: 0.05 µg/mL (≈ 0.113 µM)

## Cc1cc(C2=NOC(c3cc(Cl)cc(Cl)c3)(C(F)(F)F)C2)ccc1C(=O)NCC(F)(F)F (centres unmarked) [Example 3]
[1]
  EC80: 0.05 µg/mL (≈ 0.1 µM)

## CN(C)/C=N/C(=O)c1ccc(C2=NOC(c3cc(Cl)cc(Cl)c3)(C(F)(F)F)C2)c2ccccc12 (centres unmarked) [Example 12]
[1]
  EC80: 0.05 µg/mL (≈ 0.0984 µM)

## O=C(NCc1ccccn1)c1ccc(C2=NOC(c3cc(Cl)cc(Cl)c3)(C(F)(F)F)C2)c2ccccc12 (centres unmarked) [Example 7]
[1]
  EC80: 0.05 µg/mL (≈ 0.0919 µM)

## COCCC(=O)NCc1ccc(C2=NOC(c3cc(Cl)cc(Cl)c3)(C(F)(F)F)C2)cc1C (centres unmarked) [Example 18]
[1]
  EC80: 0.05 µg/mL (≈ 0.102 µM)

## O=C(NCC(F)(F)F)c1ccc(C2=NOC(c3cc(Cl)cc(Cl)c3)(C(F)(F)F)C2)c2ccccc12 (centres unmarked) [Example 8]
[2]; [6]
  Efficacy: 99.5%
  Mean lice count of treated fish ± s.d.: 0.1 ± 0.3
[2]; [7]
  Efficacy: 100%
  Mean lice count of treated fish ± s.d.: 0.0 ± 0.0
[2]; [8]
  Efficacy: 100%
  Mean lice count of treated fish ± s.d.: 0.0 ± 0.0
[2]; [9]
  Efficacy: 100%
  Mean lice count of treated fish ± s.d.: 0.0 ± 0.0
[2]; [10]
  Efficacy: 100%
  Mean lice count of treated fish ± s.d.: 0.0 ± 0.0
[2]; [11]
  Efficacy: 97.3%
  Mean lice count of treated fish ± s.d.: 0.5 ± 1.0
[2]; [12]
  Efficacy: 74.3%
  Mean lice count of treated fish ± s.d.: 22.9 ± 27.7
[2]; [13]
  Efficacy: 94.6%
  Mean lice count of treated fish ± s.d.: 4.5 ± 5.8
[2]; 50 mg/kg IP, 252 days post treatment, Adults
  Efficacy: 84.9%
[2]; [14]
  Efficacy: 29.8%
  Mean lice count of treated fish ± s.d.: 21.4 ± 15.5
[2]; single IP injection 50 mg/kg in PEG300, for up to 7 months post treatment
  Efficacy: more than 90%
[3]; 3 days post treatment
  effective against adult sea lice: 100%
[3]; by 10 days post treatment
  effective against developing chalimus stage: 96%
[1]
  EC80: 0.05 µg/mL (≈ 0.0934 µM)
[4]; lice assessed 34 days post treatment
  efficacy as a curative treatment (first challenge): 100%
[4]; second challenge with copepodids, assessed at adult stage
  efficacy on the challenge performed 41 days post treatment: 100%
[5]
  Efficacy: more than 90%

## CSCC(=O)NCc1ccc(C2=NOC(c3cc(Cl)cc(Cl)c3)(C(F)(F)F)C2)cc1C (centres unmarked) [Example 28]
[1]
  EC80: 0.05 µg/mL (≈ 0.102 µM)

## Cc1cc(C2=NOC(c3cc(Cl)cc(Cl)c3)(C(F)(F)F)C2)ccc1C(=O)NCC(=O)NCC(F)(F)F (centres unmarked) [Example 14]
[1]
  EC80: 0.05 µg/mL (≈ 0.0899 µM)

## Cc1cc(C2=NOC(c3cc(Cl)cc(Cl)c3)(C(F)(F)F)C2)ccc1CNC(=O)C1CCC1 (centres unmarked) [Example 30]
[1]
  EC80: 0.05 µg/mL (≈ 0.103 µM)

## COC(=O)CNC(=O)c1ccc(C2=NOC(c3cc(Cl)cc(Cl)c3)(C(F)(F)F)C2)c2ccccc12 (centres unmarked) [Example 10]
[1]
  EC80: 0.05 µg/mL (≈ 0.0952 µM)

## O=C(CNC(=O)c1ccc(C2=NOC(c3cc(Cl)cc(Cl)c3)(C(F)(F)F)C2)c2ccccc12)NCC(F)(F)F (centres unmarked) [Example 11]
[1]
  EC80: 0.05 µg/mL (≈ 0.0844 µM)

## CCC(=O)NCc1ccc(C2=NOC(c3cc(Cl)cc(Cl)c3)(C(F)(F)F)C2)cc1C (centres unmarked) [Example 17]
[1]
  EC80: 0.05 µg/mL (≈ 0.109 µM)

## N#Cc1cc(C2=NOC(c3cc(Cl)cc(Cl)c3)(C(F)(F)F)C2)ccc1-n1cncn1 (centres unmarked) [Example 6]
[1]
  EC80: 0.05 µg/mL (≈ 0.111 µM)

## Cc1cc(C2=NOC(c3cc(Cl)cc(Cl)c3)(C(F)(F)F)C2)ccc1CNC(=O)C1CC1 (centres unmarked) [Example 24]
[1]
  EC80: 0.05 µg/mL (≈ 0.106 µM)

## CC(=O)NCc1ccc(C2=NOC(c3cc(Cl)cc(Cl)c3)(C(F)(F)F)C2)cc1C (centres unmarked) [Example 29]
[1]
  EC80: 0.05 µg/mL (≈ 0.112 µM)

## Cc1cc(C2=NOC(c3cc(Cl)cc(Cl)c3)(C(F)(F)F)C2)ccc1CNC(=O)CCC#N (centres unmarked) [Example 33]
[1]
  EC80: 0.05 µg/mL (≈ 0.103 µM)

## Cc1cc(C2=NOC(c3cc(Cl)cc(Cl)c3)(C(F)(F)F)C2)ccc1CNC(=O)CC(C)C (centres unmarked) [Example 31]
[1]
  EC80: 0.05 µg/mL (≈ 0.103 µM)

## Cc1cc(C2=NOC(c3cc(Cl)cc(Cl)c3)(C(F)(F)F)C2)ccc1C(=O)NCc1ccccn1 (centres unmarked) [Example 2]
[1]
  EC80: 0.05 µg/mL (≈ 0.0984 µM)
